ChEMBL document CHEMBL1201862, “PubChem BioAssay data set” (2004)
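Five compound concentrations were applied to cells in 96-well plates for 48 hours; endpoints were derived by simple linear interpolation of the resulting dose-response curve. GI50 is the concentration that inhibits growth by half.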 Calls of active or inactive are those of the source. Rule as the data show it: active = GI50 up to about 1.1 µM and inactive = higher.

Assays:
Assay in all cases: inhibition of tumour cell growth, NCI panel, 48 h
[1] = tested on: TK-10
[2] = tested on: HT-29
[3] = tested on: OVCAR-4
[4] = tested on: SNB-19
[5] = tested on: HCT-15
[6] = tested on: NCI-H226
[7] = tested on: SR
[8] = tested on: MDA-MB-435
[9] = tested on: CCRF-CEM
[10] = tested on: PC-3
[11] = tested on: KM12
[12] = tested on: NCI-H23
[13] = tested on: RPMI-8226
[14] = tested on: SK-MEL-28
[15] = tested on: A549
[16] = tested on: M14
[17] = tested on: SF-295
[18] = tested on: SW-620
[19] = tested on: LOX IMVI
[20] = tested on: EKVX

Cc1cnc2nc(-c3ccc(Cl)cc3)cc(O)c2c1
GI50 [1]: 43.2 µM (inactive) | GI50 [2]: 3.27 µM (inactive) | GI50 [3]: 19.1 µM (inactive) | GI50 [4]: 5.35 µM (inactive) | GI50 [5]: 2.07 µM | GI50 [6]: 13.2 µM (inactive) | GI50 [7]: 0.598 µM (active) | GI50 [8]: 0.47 µM (active) | GI50 [9]: 4.44 µM (inactive) | GI50 [10]: 2.12 µM (inactive) | GI50 [11]: 3.76 µM (inactive) | GI50 [12]: 29.4 µM (inactive) | GI50 [13]: 3.88 µM (inactive) | GI50 [14]: > 22.9 µM (inactive) | GI50 [15]: 5.05 µM (inactive) | GI50 [16]: 5.81 µM (inactive) | GI50 [17]: 3.55 µM (inactive) | GI50 [18]: 4.06 µM (inactive) | GI50 [19]: 4.63 µM (inactive) | GI50 [20]: 18.5 µM (inactive)

Cn1nnc2c(C(N)=S)ncn2c1=O
GI50 [1]: > 100 µM (inactive) | GI50 [2]: > 100 µM (inactive) | GI50 [3]: > 100 µM (inactive) | GI50 [4]: > 100 µM (inactive) | GI50 [5]: > 100 µM | GI50 [6]: > 100 µM (inactive) | GI50 [7]: > 100 µM (inactive) | GI50 [8]: > 100 µM (inactive) | GI50 [9]: > 100 µM (inactive) | GI50 [10]: > 100 µM (inactive) | GI50 [11]: > 100 µM (inactive) | GI50 [12]: > 100 µM (inactive) | GI50 [13]: > 100 µM (inactive) | GI50 [14]: > 100 µM (inactive) | GI50 [15]: > 100 µM (inactive) | GI50 [16]: > 100 µM (inactive) | GI50 [17]: 74.1 µM (inactive) | GI50 [18]: > 100 µM (inactive) | GI50 [19]: > 100 µM (inactive) | GI50 [20]: > 100 µM (inactive)

CC1CC(C)C(O)C(C2CC(CC(=O)NC3CCCCC3)CC(=O)O2)C1 (stereo not given)
GI50 [1]: > 100 µM (inactive) | GI50 [2]: > 100 µM (inactive) | GI50 [3]: > 100 µM (inactive) | GI50 [4]: > 100 µM (inactive) | GI50 [5]: > 100 µM | GI50 [6]: > 100 µM (inactive) | GI50 [7]: > 100 µM (inactive) | GI50 [8]: > 100 µM (inactive) | GI50 [9]: > 100 µM (inactive) | GI50 [10]: > 100 µM (inactive) | GI50 [11]: > 100 µM (inactive) | GI50 [12]: > 100 µM (inactive) | GI50 [13]: > 100 µM (inactive) | GI50 [14]: > 100 µM (inactive) | GI50 [15]: > 100 µM (inactive) | GI50 [16]: > 100 µM (inactive) | GI50 [17]: > 100 µM (inactive) | GI50 [18]: > 100 µM (inactive) | GI50 [19]: > 100 µM (inactive) | GI50 [20]: > 100 µM (inactive)

COc1ccc2c(NCCCCCCNc3c4ccccc4nc4cc(OC)ccc34)c3ccccc3nc2c1
GI50 [1]: 0.385 µM (active) | GI50 [2]: 0.029 µM (active) | GI50 [3]: 0.103 µM (active) | GI50 [4]: 0.218 µM (active) | GI50 [5]: 1.29 µM | GI50 [6]: 0.212 µM (active) | GI50 [7]: 0.0185 µM (active) | GI50 [8]: 0.254 µM (active) | GI50 [9]: 0.0447 µM (active) | GI50 [10]: 0.0885 µM (active) | GI50 [11]: 0.0776 µM (active) | GI50 [12]: 0.104 µM (active) | GI50 [13]: 0.0573 µM (active) | GI50 [14]: 0.342 µM (active) | GI50 [15]: 0.0716 µM (active) | GI50 [16]: 0.48 µM (active) | GI50 [17]: 0.286 µM (active) | GI50 [18]: 0.0448 µM (active) | GI50 [19]: 0.0653 µM (active) | GI50 [20]: 0.579 µM (active)

C/C(=N/Nc1nc(C)cc(O)n1)C(=O)O
GI50 [1]: > 100 µM (inactive) | GI50 [2]: > 100 µM (inactive) | GI50 [3]: > 100 µM (inactive) | GI50 [4]: > 100 µM (inactive) | GI50 [5]: > 100 µM | GI50 [6]: > 100 µM (inactive) | GI50 [7]: > 100 µM (inactive) | GI50 [8]: > 100 µM (inactive) | GI50 [9]: > 100 µM (inactive) | GI50 [10]: > 100 µM (inactive) | GI50 [11]: > 100 µM (inactive) | GI50 [12]: > 100 µM (inactive) | GI50 [13]: > 100 µM (inactive) | GI50 [14]: > 100 µM (inactive) | GI50 [15]: > 100 µM (inactive) | GI50 [16]: > 100 µM (inactive) | GI50 [17]: > 100 µM (inactive) | GI50 [18]: > 100 µM (inactive) | GI50 [19]: > 100 µM (inactive) | GI50 [20]: > 100 µM (inactive)

CC(C)C(Br)C(=O)NCC(=O)O (stereo not given)
GI50 [1]: > 100 µM (inactive) | GI50 [2]: > 100 µM (inactive) | GI50 [3]: > 100 µM (inactive) | GI50 [4]: > 100 µM (inactive) | GI50 [5]: > 100 µM | GI50 [6]: > 100 µM (inactive) | GI50 [7]: > 100 µM (inactive) | GI50 [8]: > 100 µM (inactive) | GI50 [9]: > 100 µM (inactive) | GI50 [10]: > 100 µM (inactive) | GI50 [11]: > 100 µM (inactive) | GI50 [12]: > 100 µM (inactive) | GI50 [13]: > 100 µM (inactive) | GI50 [14]: > 100 µM (inactive) | GI50 [15]: > 100 µM (inactive) | GI50 [16]: > 100 µM (inactive) | GI50 [17]: > 100 µM (inactive) | GI50 [18]: > 100 µM (inactive) | GI50 [19]: > 100 µM (inactive) | GI50 [20]: > 100 µM (inactive)

CN(NC(=O)c1ccco1)C1=NCCN1
GI50 [1]: > 100 µM (inactive) | GI50 [2]: > 100 µM (inactive) | GI50 [3]: > 100 µM (inactive) | GI50 [4]: > 100 µM (inactive) | GI50 [5]: > 100 µM | GI50 [6]: > 100 µM (inactive) | GI50 [7]: > 100 µM (inactive) | GI50 [8]: > 100 µM (inactive) | GI50 [9]: > 100 µM (inactive) | GI50 [10]: > 100 µM (inactive) | GI50 [11]: > 100 µM (inactive) | GI50 [12]: > 100 µM (inactive) | GI50 [13]: > 100 µM (inactive) | GI50 [14]: > 100 µM (inactive) | GI50 [15]: > 100 µM (inactive) | GI50 [16]: > 100 µM (inactive) | GI50 [17]: > 100 µM (inactive) | GI50 [18]: > 100 µM (inactive) | GI50 [19]: > 100 µM (inactive) | GI50 [20]: > 100 µM (inactive)

O=C(O)c1ccccc1C(=O)OCC1CCCN2CCCCC12 (stereo not given)
GI50 [1]: > 100 µM (inactive) | GI50 [2]: > 100 µM (inactive) | GI50 [3]: > 100 µM (inactive) | GI50 [4]: > 100 µM (inactive) | GI50 [5]: > 100 µM | GI50 [6]: > 100 µM (inactive) | GI50 [7]: > 100 µM (inactive) | GI50 [8]: > 100 µM (inactive) | GI50 [9]: > 100 µM (inactive) | GI50 [10]: > 100 µM (inactive) | GI50 [11]: > 100 µM (inactive) | GI50 [12]: > 100 µM (inactive) | GI50 [13]: > 100 µM (inactive) | GI50 [14]: > 100 µM (inactive) | GI50 [15]: > 100 µM (inactive) | GI50 [16]: > 100 µM (inactive) | GI50 [17]: > 100 µM (inactive) | GI50 [18]: > 100 µM (inactive) | GI50 [19]: > 100 µM (inactive) | GI50 [20]: > 100 µM (inactive)

COC(=O)c1c(C)nc(C)c(NO)c1-c1ccccc1C(F)(F)F
GI50 [1]: 17.1 µM (inactive) | GI50 [2]: 18.4 µM (inactive) | GI50 [3]: 20 µM (inactive) | GI50 [4]: > 100 µM (inactive) | GI50 [5]: 16.1 µM | GI50 [6]: 20.2 µM (inactive) | GI50 [7]: 30.2 µM (inactive) | GI50 [8]: 19.6 µM (inactive) | GI50 [9]: 29.2 µM (inactive) | GI50 [10]: 70.5 µM (inactive) | GI50 [11]: 34.7 µM (inactive) | GI50 [12]: 35.6 µM (inactive) | GI50 [13]: 15.1 µM (inactive) | GI50 [14]: 20.4 µM (inactive) | GI50 [15]: > 100 µM (inactive) | GI50 [16]: 19 µM (inactive) | GI50 [17]: > 100 µM (inactive) | GI50 [18]: 16 µM (inactive) | GI50 [19]: 38.3 µM (inactive) | GI50 [20]: 83 µM (inactive)

Oc1c(Br)cc(CN(Cc2cc(Br)c(O)c(Br)c2)C2CCCCC2)cc1Br
GI50 [1]: > 100 µM (inactive) | GI50 [2]: > 100 µM (inactive) | GI50 [3]: > 100 µM (inactive) | GI50 [4]: > 100 µM (inactive) | GI50 [5]: > 100 µM | GI50 [6]: > 100 µM (inactive) | GI50 [7]: > 100 µM (inactive) | GI50 [8]: > 100 µM (inactive) | GI50 [9]: > 100 µM (inactive) | GI50 [10]: > 100 µM (inactive) | GI50 [11]: > 100 µM (inactive) | GI50 [12]: > 100 µM (inactive) | GI50 [13]: > 100 µM (inactive) | GI50 [14]: > 100 µM (inactive) | GI50 [15]: > 100 µM (inactive) | GI50 [16]: > 100 µM (inactive) | GI50 [17]: > 100 µM (inactive) | GI50 [18]: > 100 µM (inactive) | GI50 [19]: > 100 µM (inactive) | GI50 [20]: > 100 µM (inactive)

FC1=C2CCCCCC2SC1(F)F (stereo not given)
GI50 [1]: 36.6 µM (inactive) | GI50 [2]: 43.6 µM (inactive) | GI50 [3]: > 100 µM (inactive) | GI50 [4]: > 100 µM (inactive) | GI50 [5]: 34.4 µM | GI50 [6]: > 100 µM (inactive) | GI50 [7]: 20.1 µM (inactive) | GI50 [8]: 26.4 µM (inactive) | GI50 [9]: 3.36 µM (inactive) | GI50 [10]: > 100 µM (inactive) | GI50 [11]: > 100 µM (inactive) | GI50 [12]: > 100 µM (inactive) | GI50 [13]: 28.6 µM (inactive) | GI50 [14]: > 100 µM (inactive) | GI50 [15]: > 100 µM (inactive) | GI50 [16]: 30.7 µM (inactive) | GI50 [17]: > 100 µM (inactive) | GI50 [18]: 14.8 µM (inactive) | GI50 [19]: 15.7 µM (inactive) | GI50 [20]: > 100 µM (inactive)

CC(C)=CCC(O)C1=CC(=O)c2c(O)ccc(O)c2C1=O (stereo not given)
GI50 [1]: 1.53 µM (inactive) | GI50 [2]: 1.97 µM (inactive) | GI50 [3]: 1.76 µM (inactive) | GI50 [4]: 2.36 µM (inactive) | GI50 [5]: 0.21 µM | GI50 [6]: 1.01 µM (active) | GI50 [7]: 0.15 µM (active) | GI50 [8]: 1.31 µM (inactive) | GI50 [9]: 0.075 µM (active) | GI50 [10]: 2.23 µM (inactive) | GI50 [11]: 4.7 µM (inactive) | GI50 [12]: 1.13 µM (inactive) | GI50 [13]: 0.23 µM (active) | GI50 [14]: 1.48 µM (inactive) | GI50 [15]: 4.82 µM (inactive) | GI50 [16]: 1.16 µM (inactive) | GI50 [17]: 2.78 µM (inactive) | GI50 [18]: 0.933 µM (active) | GI50 [19]: 1.22 µM (inactive) | GI50 [20]: 1.54 µM (inactive)
